Results on one compound are retold here after patent US9492471B2, “Methods of treating a disease or disorder associated with Bruton'S Tyrosine Kinase” (Celgene Avilomics Research, Inc., priority 2013, dated 2016).

Read-outs that look alike come from different tables or passages of the source.

Experiment in all cases: HotSpot kinase profiling
Type in all cases: biochemical

In one assay the target is T1, ERK5/MAPK7 (Homo sapiens, UniProt Q13164).
T1 construct: purchased Reaction Biology Corp
Put shortly: (§1)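 Radiometric kinase assay with P81 filter capture; each kinase was added to fresh substrate plus cofactors in reaction buffer and incubated 2 h at room temperature. Unreacted phosphate was washed off with 0.1% phosphoric acid before detection; percent inhibition is relative to DMSO control, averaged over replicates.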

The next assay deals with T2, PKG1b (Homo sapiens, UniProt Q13976).
T2 construct: purchased Reaction Biology Corp
T2 sequence (Q13976 1-686 isoform Q13976-2): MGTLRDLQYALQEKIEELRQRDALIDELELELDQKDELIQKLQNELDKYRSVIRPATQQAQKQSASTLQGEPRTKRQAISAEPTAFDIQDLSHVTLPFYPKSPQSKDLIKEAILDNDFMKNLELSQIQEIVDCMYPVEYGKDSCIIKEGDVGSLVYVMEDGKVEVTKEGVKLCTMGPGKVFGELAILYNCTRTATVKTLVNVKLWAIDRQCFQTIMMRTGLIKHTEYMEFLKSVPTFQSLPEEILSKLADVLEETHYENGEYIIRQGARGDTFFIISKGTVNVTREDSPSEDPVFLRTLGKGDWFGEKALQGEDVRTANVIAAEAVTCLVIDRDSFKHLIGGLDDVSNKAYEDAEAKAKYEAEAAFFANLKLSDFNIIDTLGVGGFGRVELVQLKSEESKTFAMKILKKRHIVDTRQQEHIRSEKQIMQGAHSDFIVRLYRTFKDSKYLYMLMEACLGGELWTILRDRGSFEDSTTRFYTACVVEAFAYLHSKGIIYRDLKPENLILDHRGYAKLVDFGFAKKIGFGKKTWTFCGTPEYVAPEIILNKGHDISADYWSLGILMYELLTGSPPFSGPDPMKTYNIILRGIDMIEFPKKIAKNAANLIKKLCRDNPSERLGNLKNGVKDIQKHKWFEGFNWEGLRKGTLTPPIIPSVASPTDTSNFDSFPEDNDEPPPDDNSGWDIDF
Put shortly: as §1

For another assay, the target named is T3, ROCK2 (Homo sapiens, UniProt O75116).
T3 construct: purchased Reaction Biology Corp
T3 sequence (O75116 whole entry): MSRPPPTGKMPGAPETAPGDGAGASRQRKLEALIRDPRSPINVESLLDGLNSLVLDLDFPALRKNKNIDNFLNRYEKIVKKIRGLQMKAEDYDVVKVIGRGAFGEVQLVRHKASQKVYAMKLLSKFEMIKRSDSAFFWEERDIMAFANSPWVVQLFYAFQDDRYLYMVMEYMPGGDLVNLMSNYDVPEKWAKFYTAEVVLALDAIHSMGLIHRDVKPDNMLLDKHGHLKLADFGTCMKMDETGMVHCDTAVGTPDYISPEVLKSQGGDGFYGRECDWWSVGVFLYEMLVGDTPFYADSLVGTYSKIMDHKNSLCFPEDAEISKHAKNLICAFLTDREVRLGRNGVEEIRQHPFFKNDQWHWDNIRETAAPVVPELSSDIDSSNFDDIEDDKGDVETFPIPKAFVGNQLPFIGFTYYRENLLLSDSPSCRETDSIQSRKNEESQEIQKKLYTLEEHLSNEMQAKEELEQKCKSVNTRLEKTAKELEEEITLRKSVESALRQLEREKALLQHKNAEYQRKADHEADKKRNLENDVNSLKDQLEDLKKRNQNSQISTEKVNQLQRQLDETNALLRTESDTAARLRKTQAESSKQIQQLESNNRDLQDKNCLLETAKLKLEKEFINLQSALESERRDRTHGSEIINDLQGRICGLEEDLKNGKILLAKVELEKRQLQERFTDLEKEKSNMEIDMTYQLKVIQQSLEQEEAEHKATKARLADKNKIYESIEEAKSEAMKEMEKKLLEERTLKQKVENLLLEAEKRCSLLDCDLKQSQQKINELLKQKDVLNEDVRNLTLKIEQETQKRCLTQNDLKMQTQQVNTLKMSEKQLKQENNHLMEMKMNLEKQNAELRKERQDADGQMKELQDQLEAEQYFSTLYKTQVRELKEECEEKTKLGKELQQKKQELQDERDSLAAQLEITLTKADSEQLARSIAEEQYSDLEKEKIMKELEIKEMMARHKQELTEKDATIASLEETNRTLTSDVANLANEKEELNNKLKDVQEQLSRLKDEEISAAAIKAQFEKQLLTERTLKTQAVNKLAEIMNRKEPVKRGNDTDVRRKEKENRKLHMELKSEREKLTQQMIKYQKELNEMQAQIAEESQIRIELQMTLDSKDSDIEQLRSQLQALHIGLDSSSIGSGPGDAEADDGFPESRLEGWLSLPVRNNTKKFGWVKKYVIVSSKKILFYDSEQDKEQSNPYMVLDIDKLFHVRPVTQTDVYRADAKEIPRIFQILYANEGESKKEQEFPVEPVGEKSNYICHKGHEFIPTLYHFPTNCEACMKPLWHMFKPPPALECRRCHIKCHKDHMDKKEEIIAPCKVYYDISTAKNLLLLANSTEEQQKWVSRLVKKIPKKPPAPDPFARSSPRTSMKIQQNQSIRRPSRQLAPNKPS
The method in brief:
as §1

For the next assay, the target named is T4, RON/MST1R (Homo sapiens, UniProt Q04912).
T4 construct: purchased Reaction Biology Corp
T4 sequence (Q04912 25-1400): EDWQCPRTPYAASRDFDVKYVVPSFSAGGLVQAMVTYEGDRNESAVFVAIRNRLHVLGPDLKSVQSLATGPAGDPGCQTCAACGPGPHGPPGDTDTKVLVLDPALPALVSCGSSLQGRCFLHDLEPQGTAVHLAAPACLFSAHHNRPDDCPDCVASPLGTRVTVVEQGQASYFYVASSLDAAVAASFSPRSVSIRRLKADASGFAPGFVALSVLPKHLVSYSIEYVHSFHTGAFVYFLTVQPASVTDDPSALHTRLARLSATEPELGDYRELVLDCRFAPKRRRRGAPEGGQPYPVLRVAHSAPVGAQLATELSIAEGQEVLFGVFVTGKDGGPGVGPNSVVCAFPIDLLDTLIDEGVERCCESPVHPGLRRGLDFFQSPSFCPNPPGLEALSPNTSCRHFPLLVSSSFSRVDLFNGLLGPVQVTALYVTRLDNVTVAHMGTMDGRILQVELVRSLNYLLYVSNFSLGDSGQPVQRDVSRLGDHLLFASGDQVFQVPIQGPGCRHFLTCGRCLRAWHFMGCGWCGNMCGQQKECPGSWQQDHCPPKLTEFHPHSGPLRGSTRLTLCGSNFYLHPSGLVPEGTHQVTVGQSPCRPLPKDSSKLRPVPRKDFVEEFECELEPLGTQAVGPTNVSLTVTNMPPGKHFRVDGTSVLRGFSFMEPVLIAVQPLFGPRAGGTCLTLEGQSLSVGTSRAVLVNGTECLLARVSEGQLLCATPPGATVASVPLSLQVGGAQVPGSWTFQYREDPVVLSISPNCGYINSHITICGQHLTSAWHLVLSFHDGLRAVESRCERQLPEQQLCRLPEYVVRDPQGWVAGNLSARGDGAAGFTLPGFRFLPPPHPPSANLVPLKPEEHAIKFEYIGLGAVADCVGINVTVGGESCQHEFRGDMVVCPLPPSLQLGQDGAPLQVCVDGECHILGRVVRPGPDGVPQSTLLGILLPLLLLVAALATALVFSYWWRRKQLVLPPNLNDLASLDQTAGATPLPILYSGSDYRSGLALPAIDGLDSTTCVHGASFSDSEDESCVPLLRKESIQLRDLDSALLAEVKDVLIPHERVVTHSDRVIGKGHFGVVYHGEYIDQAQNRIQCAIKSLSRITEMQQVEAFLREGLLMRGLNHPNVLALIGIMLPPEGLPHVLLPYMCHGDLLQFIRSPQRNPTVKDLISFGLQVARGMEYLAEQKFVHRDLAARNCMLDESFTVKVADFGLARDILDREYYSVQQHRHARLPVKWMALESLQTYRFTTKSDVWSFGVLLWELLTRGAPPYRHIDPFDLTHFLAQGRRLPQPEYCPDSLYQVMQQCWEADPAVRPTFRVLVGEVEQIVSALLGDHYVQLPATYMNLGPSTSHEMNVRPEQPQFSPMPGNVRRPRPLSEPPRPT
Put shortly: as §1

The target of the next assay is T5, c-MER (Homo sapiens, UniProt Q12866).
T5 construct: purchased Reaction Biology Corp
T5 sequence (Q12866 21-999): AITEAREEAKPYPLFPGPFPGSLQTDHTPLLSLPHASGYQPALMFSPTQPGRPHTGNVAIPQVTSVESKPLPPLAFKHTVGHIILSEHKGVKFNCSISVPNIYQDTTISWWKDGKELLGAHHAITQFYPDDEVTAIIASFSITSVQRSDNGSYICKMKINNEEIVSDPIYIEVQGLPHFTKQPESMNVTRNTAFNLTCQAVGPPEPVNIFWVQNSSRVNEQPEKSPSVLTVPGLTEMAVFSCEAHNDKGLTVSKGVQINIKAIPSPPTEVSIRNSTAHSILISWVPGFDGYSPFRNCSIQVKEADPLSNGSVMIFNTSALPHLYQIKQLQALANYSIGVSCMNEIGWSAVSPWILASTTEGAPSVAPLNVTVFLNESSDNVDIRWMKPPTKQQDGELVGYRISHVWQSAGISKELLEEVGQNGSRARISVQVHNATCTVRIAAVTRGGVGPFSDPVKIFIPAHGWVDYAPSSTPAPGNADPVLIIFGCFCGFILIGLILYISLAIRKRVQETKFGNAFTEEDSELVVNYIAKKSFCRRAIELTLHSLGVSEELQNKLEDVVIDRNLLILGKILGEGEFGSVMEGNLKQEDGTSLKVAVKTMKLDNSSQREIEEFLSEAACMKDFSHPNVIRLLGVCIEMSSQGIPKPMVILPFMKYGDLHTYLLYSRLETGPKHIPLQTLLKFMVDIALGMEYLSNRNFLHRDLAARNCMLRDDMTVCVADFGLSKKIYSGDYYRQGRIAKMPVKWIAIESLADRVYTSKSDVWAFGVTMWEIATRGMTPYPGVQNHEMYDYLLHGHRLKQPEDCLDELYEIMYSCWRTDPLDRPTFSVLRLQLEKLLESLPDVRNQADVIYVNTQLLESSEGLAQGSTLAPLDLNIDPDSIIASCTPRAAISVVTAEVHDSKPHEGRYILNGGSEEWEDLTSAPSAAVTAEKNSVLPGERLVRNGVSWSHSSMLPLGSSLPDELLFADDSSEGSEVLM
Put shortly:
as §1

Where [1] appears, read: read-out: % Enzyme Activity (relative to DMSO controls) Run 1.
Setting [2] is: read-out: % Enzyme Activity (relative to DMSO controls) Run 2.

Broadly, the inhibition is the relative decrease from the control value, in per cent.

T1 sequence (Q13164 whole entry): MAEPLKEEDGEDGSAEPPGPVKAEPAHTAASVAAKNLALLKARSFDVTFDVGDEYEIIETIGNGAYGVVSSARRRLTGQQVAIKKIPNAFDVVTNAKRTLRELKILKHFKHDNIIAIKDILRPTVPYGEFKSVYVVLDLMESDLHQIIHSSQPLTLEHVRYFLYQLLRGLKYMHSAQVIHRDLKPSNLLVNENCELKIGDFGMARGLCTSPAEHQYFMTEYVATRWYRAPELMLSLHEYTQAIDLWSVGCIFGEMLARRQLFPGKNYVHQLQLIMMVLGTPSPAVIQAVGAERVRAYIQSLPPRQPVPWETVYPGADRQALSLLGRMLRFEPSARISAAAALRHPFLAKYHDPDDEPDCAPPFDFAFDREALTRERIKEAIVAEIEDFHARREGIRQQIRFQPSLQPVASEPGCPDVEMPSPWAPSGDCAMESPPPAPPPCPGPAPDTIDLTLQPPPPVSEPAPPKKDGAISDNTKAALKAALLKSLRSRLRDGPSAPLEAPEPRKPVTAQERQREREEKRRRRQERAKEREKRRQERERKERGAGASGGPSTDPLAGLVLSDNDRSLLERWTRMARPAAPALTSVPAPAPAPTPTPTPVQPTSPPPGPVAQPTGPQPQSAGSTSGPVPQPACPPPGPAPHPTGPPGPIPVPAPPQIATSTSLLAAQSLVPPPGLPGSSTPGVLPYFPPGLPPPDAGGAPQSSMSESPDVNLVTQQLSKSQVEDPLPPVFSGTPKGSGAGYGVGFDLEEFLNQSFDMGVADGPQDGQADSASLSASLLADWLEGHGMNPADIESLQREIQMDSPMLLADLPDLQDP

Consider `C=CC(=O)Nc1cccc(Nc2nc(Nc3ccc(OCCOC)c(F)c3)ncc2F)c1` [Compound 2], for which the inhibition at 3 µM against ERK5/MAPK7 was -0.37%; against PKG1b, 13.8%; at ROCK2, -1.88%; against RON/MST1R, -2.24%; on c-MER, 33.6%. Besides, the remaining activity at 3 µM on ERK5/MAPK7 (setting [1]) worked out at 101%; at ERK5/MAPK7 (setting [2]), 99.9%; on PKG1b (setting [1]), 85.4%; at PKG1b (setting [2]), 87.1%; at ROCK2 (setting [1]), 102%; on ROCK2 (setting [2]), 101%. Besides, the remaining activity at 3 µM stood at 103% on RON/MST1R (setting [1]), 101% on RON/MST1R (setting [2]), 66.5% on c-MER (setting [1]) and 66.4% on c-MER (setting [2]).
